Assay results published in patent US20160209428A1, “DIAGNOSTIC AND PREDICTIVE METABOLITE PATTERNS FOR DISORDERS AFFECTING THE BRAIN AND NERVOUS SYSTEM” (THE REGENTS OF THE UNIVERSITY OF CALIFORNIA, priority 2013, published 2016).

Key:
Format in all cases: in vivo
[1] = system: maternal immune activation (MIA) mouse model; experiment: T-maze spontaneous alternation, MIA model; conditions: MIA animals
Procedure: Novelty preference was tested as spontaneous alternation behavior in the T-maze. […] (N=8-13, 5.25-month-old males per group).
Novelty preference is an innate feature of normal rodent and human behavior and a predictor of socialization and communication growth in children with ASD. The loss or suppression of novelty preference in children with ASD is associated with the phenomenon known as insistence on sameness. Preference for novelty was estimated as spontaneous alternation behavior in the T-maze. The T-maze can also be used to estimate spatial working memory, especially when food-motivated. […] These deficits were normalized after a single dose of suramin.

[2] = system: Fragile X (Fmr1) knockout mouse; experiment: T-maze spontaneous alternation (novelty preference), Fragile X model; conditions: Fmr1 KO mice, weekly suramin 20 mg/kg ip
Text: A preference for novelty was estimated as spontaneous alternation behavior in the T-maze.

[3] = system: Fragile X (Fmr1) knockout mouse; experiment: Plasma metabolomics after weekly suramin or saline, Fragile X model; conditions: for Suramin Treatment Effect (KO-Sur/KO-Sal): Fragile X KO
Procedure: Samples were analyzed on an AB SCIEX QTRAP 5500 triple quadrupole mass spectrometer equipped with a Turbo V electrospray ionization (ESI) source, Shimadzu LC-20A UHPLC system, and a PAL CTC autosampler (AB ACIEX, Framingham, Mass., USA). […] Plasma was separated by centrifugation at 600 g×5 minutes at 20° C. within one hour of collection. Fresh lithium-heparin plasma was transferred to labeled tubes for storage at −80° C. for analysis. Typically 45 μl of plasma was thawed on ice and transferred to a 1.7 ml Eppendorf tube. Two and one-half (2.5) μl of a cocktail containing 35 commercial stable isotope internal standards, and 2.5 μl of 310 stable isotope internal standards that were custom-synthesized in E. coli and S. cerevisiae by metabolic labeling with ^13C-glucose and ^13C-bicarbonate, were added, mixed, and incubated for 10 min at room temperature to permit small molecules and vitamins in the internal standards to associate with plasma binding proteins. Macromolecules (protein, DNA, RNA, etc.) were precipitated by extraction with 4 volumes (200 μl) of cold (−20° C.), acetonitrile:methanol (50:50) (LCMS grade, Cat#LC015-2.5 and GC230-4, Burdick & Jackson, Honeywell), vortexed vigorously, and incubated on crushed ice for 10 min, then removed by centrifugation at 16,000 g×10 min at 4° C. The supernatants containing the extracted metabolites and internal standards in the resulting 40:40:20 solvent mix of acetonitrile:methanol:water were transferred to labeled cryotubes and stored at −80° C. for LC-MS/MS (liquid chromatography-tandem mass spectrometry) analysis.
LC-MS/MS analysis was performed by multiple reaction monitoring (MRM) under Analyst v1.6.1 (AB SCIEX, Framingham, Mass., USA) software control in both negative and positive mode with rapid polarity switching (50 ms). Nitrogen was used for curtain gas (set to 30), collision gas (set to high), ion source gas 1 and 2 (set to 35). The source temperature was 500° C. Spray voltage was set to −4500 V in negative mode and 5500 V in positive mode. The values for Q1 and Q3 mass-to-charge ratios (m/z), declustering potential (DP), entrance potential (EP), collision energy (CE), and collision cell exit potential (CXP) were determined and optimized for each MRM for each metabolite. Ten microliters of extract was injected by PAL CTC autosampler into a 250 mm×2 mm, 5 μm Luna NH2 aminopropyl HPLC column (Phenomenex, Torrance, Calif., USA) held at 25° C. for chromatographic separation. […] The flow rate was 300 μl/min. All the samples were kept at 4° C. during analysis. The chromatographic peaks were identified using MultiQuant (v3.0, AB SCIEX), confirmed by manual inspection, and the peak areas integrated. The median of the peak area of stable isotope internal standards was calculated and used for the normalization of metabolites concentration across the samples and batches. Prior to multivariate and univariate analysis, the data were log-transformed.
A rendering of mammalian intermediary metabolism was constructed in Cytoscape v 3.1.1 (see, e.g., [http://]www.cytoscape.org/). […] Nodes in the Cytoscape network represent metabolites within the pathways and have been colored according to the Z-score. The Z-score was computed as the arithmetic difference between the mean concentration of each metabolite in the KO-Sur treatment group and the KO-Sal control group, divided by the standard deviation in the controls. Node colors were arranged on a red-green color scale with green representing −2.00 Z-score, red representing +2.00 Z-score, and with a zero (0) Z-score represented as white.
Group means and standard error of the means (SEM) are reported. Behavioral data were analyzed by two-way ANOVA and one-way ANOVAs (GraphPad Prism 5.0d, GraphPad Software Inc., La Jolla, Calif., USA, or Stata/SE v12.1, StataCorp, College Station, Tex., USA). Pair-wise post hoc testing was performed by the method of Tukey or Newman-Keuls. Significance was set at p<0.05.

## Cc1ccc(C(=O)Nc2ccc(S(=O)(=O)O)c3cc(S(=O)(=O)O)cc(S(=O)(=O)O)c23)cc1NC(=O)c1cccc(NC(=O)Nc2cccc(C(=O)Nc3cc(C(=O)Nc4ccc(S(=O)(=O)O)c5cc(S(=O)(=O)O)cc(S(=O)(=O)O)c45)ccc3C)c2)c1 [Suramin, suramin]
[1]; 5 weeks after single dose
  novelty preference five weeks after suramin washout: no residual benefit remained
[1]; single dose of suramin
  deficient novelty preference (spontaneous alternation in T-maze): normalized
[2]
  deficient novelty preference (spontaneous alternation in T-maze): normalized
[3]; Bile Salt Metabolism, plasma
  Suramin Treatment Effect (KO-Sur/KO-Sal): Increased
[3]; Branch Chain Amino Acid Metabolism, plasma
  Suramin Treatment Effect (KO-Sur/KO-Sal): Increased
[3]; Cardiolipin Metabolism, plasma
  Suramin Treatment Effect (KO-Sur/KO-Sal): Decreased
[3]; Cholesterol, Cortisol, Non-Gonadal Steroid Metabolism, plasma
  Suramin Treatment Effect (KO-Sur/KO-Sal): 2/2 Increased
[3]; Eicosanoid and Resolvin Metabolism, plasma
  Suramin Treatment Effect (KO-Sur/KO-Sal): 4/6 Increased
[3]; Fatty Acid Oxidation and Synthesis, plasma
  Suramin Treatment Effect (KO-Sur/KO-Sal): 9/9 Decreased
[3]; Ganglioside Metabolism, plasma
  Suramin Treatment Effect (KO-Sur/KO-Sal): 6/6 Increased
[3]; Glycolysis and Gluconeogenesis, plasma
  Suramin Treatment Effect (KO-Sur/KO-Sal): 2/2 Decreased
[3]; Isoleucine, Valine, Threonine, or Methionine Metabolism, plasma
  Suramin Treatment Effect (KO-Sur/KO-Sal): Increased
[3]; Krebs Cycle, plasma
  Suramin Treatment Effect (KO-Sur/KO-Sal): Increased
[3]; Microbiome Metabolism, plasma
  Suramin Treatment Effect (KO-Sur/KO-Sal): 2/3 Decreased
[3]; Nitric Oxide, Superoxide, Peroxide Metabolism, plasma
  Suramin Treatment Effect (KO-Sur/KO-Sal): Increased
[3]; Pentose Phosphate, Gluconate Metabolism, plasma
  Suramin Treatment Effect (KO-Sur/KO-Sal): Increased
[3]; Phospholipid Metabolism, plasma
  Suramin Treatment Effect (KO-Sur/KO-Sal): 6/6 Increased
[3]; Purine Metabolism, plasma metabolites with VIP >=1.5, weekly suramin vs saline
  Suramin Treatment Effect (KO-Sur/KO-Sal): 4/5 Decreased
[3]; Pyrimidine Metabolism, plasma
  Suramin Treatment Effect (KO-Sur/KO-Sal): Decreased
[3]; SAM, SAH, Methionine, Cysteine, Glutathione Metabolism, plasma
  Suramin Treatment Effect (KO-Sur/KO-Sal): 3/3 Increased
[3]; Sphingolipid Metabolism, plasma
  Suramin Treatment Effect (KO-Sur/KO-Sal): 3/5 Decreased
[3]; Vitamin B3 (Niacin, NAD+) Metabolism, plasma
  Suramin Treatment Effect (KO-Sur/KO-Sal): 1/2 Increased
[3]; Vitamin B6 (Pyridoxine) Metabolism, plasma
  Suramin Treatment Effect (KO-Sur/KO-Sal): Increased
[3]; all 20 of 60 Pathways Dysregulated, top 58 metabolites, plasma
  Suramin Treatment Effect (KO-Sur/KO-Sal): 33/58 Increased
[3]; plasma, Fmr1 KO mice, suramin treatment
  acyl-carnitine species with generalized decrease: 9 of 9
[3]; plasma, Fmr1 KO mice, weekly suramin
  biochemical pathways with pharmacometabolomic changes: 20 of 60
